{
  "source": "patent US20250115603A1",
  "about": "“CRYSTALLINE FORMS OF A KRAS INHIBITOR” (Incyte Corporation, priority 2023, published 2025)",
  "type_in_all_cases": "physicochemical",
  "key": {"[1]": {"assay": "Compound 1 hydrochloride polymorph screening", "conditions": "nine polymorphs (Forms I-IX) identified by standard polymorph screening"}, "[2]": {"assay": "Solubility measurement at 25° C. (HPLC of saturated solution)", "conditions": "for solubility: 25 °C, organic solvent or mixture; for Solubility (25° C.): monohydrochloride dihydrate", "experimental": "(§1) The solubility of the Compound 1 HCl sample (prepared according to Example 4) was measured according to the procedure for solubility at 25° C. in Table 8 and the procedure for solubility at 50° C. in Table 9."}, "[3]": {"assay": "Solubility measurement at 50° C. (HPLC of saturated solution)", "conditions": "for Solubility (50° C.): monohydrochloride dihydrate; for solubility: 50 °C, organic solvent or mixture", "experimental": "as §1"}, "[4]": {"conditions": "2-Methoxyethanol, by visual assessment"}, "[5]": {"conditions": "Dimethylformamide, by visual assessment"}, "[6]": {"conditions": "n-Propanol, by visual assessment"}},
  "note": "Structures can show the parent of a compound that is named as a salt. Marks after values point to notes of the source that are not given here.",
  "data": [
    {"smiles": "Cc1nc2c(F)c(-c3cccc(Cl)c3Cl)c(CCC#N)cc2c2c1cc(C1CC3C[C@H]3N1C(=O)C1CC1)n2C1[C@H]2CN[C@@H]1C2", "note": "(atropisomer, axis not shown; (Ra)) [Compound 1 HCl, 3-((Ra)-1-((1R,4R,5S)-2-azabicyclo[2.1.1]hexan-5-yl)-2-((1R,3R,5R)-2-(cyclopropanecarbonyl)-2-azabicyclo[3.1.0]hexan-3-yl)-7-(2,3-dichlorophenyl)-6-fluoro-4-methyl-1H-pyrrolo[3,2-c]quinolin-8-yl)propanenitrile monohydrochloride dihydrate]", "values": [
      {"measurement": "Relative stability of crystalline forms of Compound 1 HCl", "setting": "[1]", "result": "most stable form"},
      {"measurement": "solubility", "setting": "[2]; [4]", "result": "> 50", "unit": "mg/mL"},
      {"measurement": "Solubility (25° C.)", "setting": "[2]; [4]", "result": ">50* mg/mL"},
      {"measurement": "solubility", "setting": "[2]; DMSO, by visual assessment", "result": "> 50", "unit": "mg/mL"},
      {"measurement": "Solubility (25° C.)", "setting": "[2]; DMSO, by visual assessment", "result": ">50* mg/mL"},
      {"measurement": "solubility", "setting": "[2]; [5]", "result": "> 50", "unit": "mg/mL"},
      {"measurement": "Solubility (25° C.)", "setting": "[2]; [5]", "result": ">50* mg/mL"},
      {"measurement": "solubility", "setting": "[2]; MeOH, by visual assessment", "result": "> 50", "unit": "mg/mL"},
      {"measurement": "Solubility (25° C.)", "setting": "[2]; MeOH, by visual assessment", "result": ">50* mg/mL"},
      {"measurement": "solubility", "setting": "[2]; Methyl iso-butyl ketone", "result": "1 to 15", "unit": "mg/mL"},
      {"measurement": "Solubility (25° C.)", "setting": "[2]; Methyl iso-butyl ketone", "result": 1.3, "unit": "mg/mL"},
      {"measurement": "solubility", "setting": "[2]; Tetrahydrofuran (THF)", "result": "< 1", "unit": "mg/mL"},
      {"measurement": "Solubility (25° C.)", "setting": "[2]; Tetrahydrofuran (THF)", "result": 0.9, "unit": "mg/mL"},
      {"measurement": "solubility", "setting": "[2]; heptane", "result": 0.01, "unit": "mg/mL"},
      {"measurement": "solubility", "setting": "[2]; n-BuOH, by visual assessment", "result": "> 50", "unit": "mg/mL"},
      {"measurement": "Solubility (25° C.)", "setting": "[2]; n-BuOH, by visual assessment", "result": ">50* mg/mL"},
      {"measurement": "Solubility (50° C.)", "setting": "[3]; [4]", "result": ">50* mg/mL"},
      {"measurement": "solubility", "setting": "[3]; 2-methoxyethanol, by visual assessment", "result": "> 50", "unit": "mg/mL"},
      {"measurement": "Solubility (50° C.)", "setting": "[3]; 3% MeOH 0.3% water in EtOAc", "result": 0.8, "unit": "mg/mL"},
      {"measurement": "solubility", "setting": "[3]; 3% MeOH, 0.3% water in EtOAc, 3% MeOH 0.3% water in EtOAc", "result": "< 1", "unit": "mg/mL"},
      {"measurement": "Solubility (50° C.)", "setting": "[3]; Acetone", "result": 19.2, "unit": "mg/mL"},
      {"measurement": "Solubility (50° C.)", "setting": "[3]; Chloroform", "result": 21.2, "unit": "mg/mL"},
      {"measurement": "solubility", "setting": "[3]; DMSO, by visual assessment", "result": "> 50", "unit": "mg/mL"},
      {"measurement": "Solubility (50° C.)", "setting": "[3]; DMSO, by visual assessment", "result": ">50* mg/mL"},
      {"measurement": "Solubility (50° C.)", "setting": "[3]; [5]", "result": ">50* mg/mL"},
      {"measurement": "solubility", "setting": "[3]; EtOH", "result": "15 to 50", "unit": "mg/mL"},
      {"measurement": "Solubility (50° C.)", "setting": "[3]; EtOH", "result": 22.3, "unit": "mg/mL"},
      {"measurement": "solubility", "setting": "[3]; Ethyl formate", "result": "< 1", "unit": "mg/mL"},
      {"measurement": "Solubility (50° C.)", "setting": "[3]; Ethyl formate", "result": 0.6, "unit": "mg/mL"},
      {"measurement": "solubility", "setting": "[3]; MeOH, by visual assessment", "result": "> 50", "unit": "mg/mL"},
      {"measurement": "Solubility (50° C.)", "setting": "[3]; MeOH, by visual assessment", "result": ">50* mg/mL"},
      {"measurement": "solubility", "setting": "[3]; acetone", "result": "15 to 50", "unit": "mg/mL"},
      {"measurement": "solubility", "setting": "[3]; chloroform", "result": "15 to 50", "unit": "mg/mL"},
      {"measurement": "solubility", "setting": "[3]; dimethylformamide, by visual assessment", "result": "> 50", "unit": "mg/mL"},
      {"measurement": "solubility", "setting": "[3]; heptane", "result": 0.02, "unit": "mg/mL"},
      {"measurement": "Solubility (50° C.)", "setting": "[3]; iso-Propanol (IPA), by visual assessment", "result": ">50* mg/mL"},
      {"measurement": "solubility", "setting": "[3]; iso-propanol (IPA), by visual assessment", "result": "> 50", "unit": "mg/mL"},
      {"measurement": "solubility", "setting": "[3]; n-BuOH, by visual assessment", "result": "> 50", "unit": "mg/mL"},
      {"measurement": "Solubility (50° C.)", "setting": "[3]; n-BuOH, by visual assessment", "result": ">50* mg/mL"},
      {"measurement": "solubility", "setting": "[3]; [6]", "result": "> 50", "unit": "mg/mL"},
      {"measurement": "Solubility (50° C.)", "setting": "[3]; [6]", "result": ">50* mg/mL"}
    ]}
  ]
}
